How the values were obtained:
GABArho receptors = conditions: cited from earlier work
[1] = test system: GABArho receptors expressed by bovine retina RNA; test: Electrical recording in Xenopus oocytes expressing GABArho receptors from bovine retina RNA; type: cell-based
Source text: (§1) Electrical recording techniques and the Xenopus oocyte expression system were used to determine the sensitivity of a variety of commonly used GABAA and GABAB receptor ligands to GABArho receptors expressed by bovine retina RNA.

cloned GABArho receptors = target: T1, cloned GABArho receptors (Homo sapiens, UniProt P24046); test: Membrane currents in Xenopus oocytes expressing cloned GABArho receptors; type: cell-based
T1 construct: expressed in transfected cells; host or cells: Xenopus oocytes injected with cloned receptor RNA
Description: (§2) To test the new compounds synthesized, Xenopus oocytes were injected with the cloned GABA RNA and other oocytes were injected with native poly (A)^+ RNAs extracted from the rat cerebral cortex or spinal cord, bovine brain, rabbit brain, chick brain or optic lobe. […] The various concentrations of compound 7 were applied together with 10^-5M GABA.
To study the time to onset of antagonistic action by TPMPA, a timed trial utilizing pulsed application of GABA (10^-5 M) and TPMPA (8×10^-5 M) was begun. At the first marker pulse of 50 nA, GABA administration of GABA was begun. TPMPA was applied between the 2nd and 3rd markers, and normal Ringers solution (without GABA) was applied at the 4th marker pulse.

[2] = test system: chick brain GABAA receptors; test: Membrane currents in Xenopus oocyte expressing chick brain GABAA receptors; type: cell-based; conditions: various concentrations applied together with 10^-5 M GABA
Description: as §2

[3] = test system: GABAA receptors expressed by native mRNAs from the brain; test: Xenopus oocytes expressing GABAA receptors from native brain mRNAs of different animal species; type: cell-based
Description: as §2

[4] = test system: GABAA receptors expressed by rat brain mRNA; test: Xenopus oocytes expressing GABAA receptors from rat brain mRNA; type: cell-based
[5] = test system: GABAA receptors expressed by bovine retina mRNA; test: Xenopus oocytes expressing GABAA receptors from bovine retina mRNA; type: cell-based
Source text: as §1
When a methylphosphinic acid substituent was used to replace the carboxyl group of GABA in this compound, affects at GABAA receptors were prohibited, but relatively strong interactions at closed channel binding sites on GABArho receptors were detected.

[6] = pulsed application of GABA 10^-5 M and TPMPA 8×10^-5 M

T1 sequence (P24046 22-479): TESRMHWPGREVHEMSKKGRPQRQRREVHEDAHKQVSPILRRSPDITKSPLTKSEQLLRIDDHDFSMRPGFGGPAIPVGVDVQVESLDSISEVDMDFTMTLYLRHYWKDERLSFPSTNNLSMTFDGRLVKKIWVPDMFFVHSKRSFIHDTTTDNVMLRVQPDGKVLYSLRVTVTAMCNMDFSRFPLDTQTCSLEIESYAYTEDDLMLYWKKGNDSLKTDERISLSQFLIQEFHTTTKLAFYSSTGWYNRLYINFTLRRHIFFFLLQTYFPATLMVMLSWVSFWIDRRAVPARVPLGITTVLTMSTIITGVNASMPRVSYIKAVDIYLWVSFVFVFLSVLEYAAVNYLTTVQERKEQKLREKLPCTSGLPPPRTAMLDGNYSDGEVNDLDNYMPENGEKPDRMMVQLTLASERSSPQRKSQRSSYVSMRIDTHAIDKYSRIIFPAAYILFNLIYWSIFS

For `CN1CCc2cc3c(cc2[C@H]1[C@@H]1OC(=O)c2c1ccc1c2OCO1)OCO3` [bicuculline], the “sensitivity of GABArho receptors” value (GABArho receptors) is listed as “insensitive”.
In the case of `NCC(CC(=O)O)c1ccc(Cl)cc1` (stereo not drawn) [baclofen], the “sensitivity of GABArho receptors” value (GABArho receptors) is listed as “insensitive”.
With `CP(=O)(O)C1=CCNCC1` [Compound 7a, 1,2,5,6-tetrahydropyridine-4-methylphosphinic acid] the “antagonism of GABArho receptors” value ([1]; expressed by native bovine retina mRNA) was “potent and selective antagonist”, the “effect on membrane current response to GABA” value (cloned GABArho receptors; 8×10^-5 M compound applied together with 10^-5 M GABA) was “abolishes almost completely the response to GABA” and the “antagonism of GABArho receptors” value (cloned GABArho receptors; expressed by cloned GABArho receptor RNA) was “potent and selective antagonist”. For the same compound, the “onset of antagonistic action” value (cloned GABArho receptors; [6]) was “rapid in onset”, the “recovery from antagonistic action” value (cloned GABArho receptors; [6]) was “recovery was also rapid” and the “attenuation of currents elicited by activation of GABAA receptors” value [2] was “not greatly attenuated until quite high concentration were used”. The “blockage of GABAA receptors compared with GABArho receptors” value [3] was “blockage was less than that of GABArho receptors”.
For `O=C(O)C1=CCNCC1` [isoguvacine], the “action on GABArho receptors” value [1] was “either as weak partial agonists or as competitive antagonists”.
For `Oc1noc2c1CCNC2` [THIP, 4,5,6,7-tetrahydroisoxazolo-[5,4-c]-pyridin-3-ol], the “action on GABArho receptors” value [1] was “either as weak partial agonists or as competitive antagonists”.
With `O=C(O)C1CCNCC1` [isonipecotic acid] the “action on GABArho receptors” value [1] was “either as weak partial agonists or as competitive antagonists”.
With `CP(=O)(O)CCCN` [3-aminopropyl(methyl-)phosphinic acid] the Ki ([1]; read-out: Ki as competitive antagonist at GABArho receptors) was 800 nM, the “effects on GABAA receptors” value [4] was “no detectable effects” and the “effects on GABAA receptors” value [5] was “no detectable effects”.

Reference: patent publication US5627169A, “Selective antagonists for GABArho receptor” (The Regents of The University of California, priority 1994, dated 1997)
